One series concerns the target Integrin alpha-V/beta-3 (Homo sapiens, UniProt P05106+P06756). The series is described as follows: Inhibitory concentration against alphaV-beta3 integrin. It is filed as protein-complex assay.
The species named for a further series is Homo sapiens. The series is described as follows: Inhibition of aggregation of ADP-stimulated human platelets. It is filed as functional.
The target in series [1] is Integrin alpha-IIb/beta-3 (Homo sapiens, UniProt P05106+P08514). In words: Inhibition of binding of fibrinogen to purified human GPIIb-IIIa in ELISA. The format is protein-complex assay.
Integrin alpha-IIb/beta-3, sequence (P05106 27-788 limits assumed): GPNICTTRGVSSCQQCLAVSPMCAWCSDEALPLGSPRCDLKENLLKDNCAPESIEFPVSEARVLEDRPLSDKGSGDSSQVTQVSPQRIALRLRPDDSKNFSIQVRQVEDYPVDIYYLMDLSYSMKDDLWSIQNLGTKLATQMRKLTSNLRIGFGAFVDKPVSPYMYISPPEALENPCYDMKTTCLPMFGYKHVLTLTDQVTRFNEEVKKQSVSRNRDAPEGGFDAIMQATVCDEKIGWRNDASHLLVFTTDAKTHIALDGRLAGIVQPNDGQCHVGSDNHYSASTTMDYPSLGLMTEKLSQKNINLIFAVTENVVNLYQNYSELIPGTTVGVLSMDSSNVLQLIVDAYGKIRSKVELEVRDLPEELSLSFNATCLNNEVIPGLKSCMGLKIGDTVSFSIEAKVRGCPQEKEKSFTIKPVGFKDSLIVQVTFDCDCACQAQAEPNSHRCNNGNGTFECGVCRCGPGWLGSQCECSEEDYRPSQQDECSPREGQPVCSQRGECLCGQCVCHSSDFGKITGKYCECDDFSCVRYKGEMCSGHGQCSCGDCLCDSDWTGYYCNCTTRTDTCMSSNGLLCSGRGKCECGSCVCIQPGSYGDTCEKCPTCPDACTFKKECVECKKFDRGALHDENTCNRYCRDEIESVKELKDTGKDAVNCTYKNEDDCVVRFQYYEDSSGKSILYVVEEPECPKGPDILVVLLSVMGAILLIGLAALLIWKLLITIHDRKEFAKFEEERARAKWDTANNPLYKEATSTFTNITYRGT
Integrin alpha-IIb/beta-3, sequence (P08514 32-887 limits assumed): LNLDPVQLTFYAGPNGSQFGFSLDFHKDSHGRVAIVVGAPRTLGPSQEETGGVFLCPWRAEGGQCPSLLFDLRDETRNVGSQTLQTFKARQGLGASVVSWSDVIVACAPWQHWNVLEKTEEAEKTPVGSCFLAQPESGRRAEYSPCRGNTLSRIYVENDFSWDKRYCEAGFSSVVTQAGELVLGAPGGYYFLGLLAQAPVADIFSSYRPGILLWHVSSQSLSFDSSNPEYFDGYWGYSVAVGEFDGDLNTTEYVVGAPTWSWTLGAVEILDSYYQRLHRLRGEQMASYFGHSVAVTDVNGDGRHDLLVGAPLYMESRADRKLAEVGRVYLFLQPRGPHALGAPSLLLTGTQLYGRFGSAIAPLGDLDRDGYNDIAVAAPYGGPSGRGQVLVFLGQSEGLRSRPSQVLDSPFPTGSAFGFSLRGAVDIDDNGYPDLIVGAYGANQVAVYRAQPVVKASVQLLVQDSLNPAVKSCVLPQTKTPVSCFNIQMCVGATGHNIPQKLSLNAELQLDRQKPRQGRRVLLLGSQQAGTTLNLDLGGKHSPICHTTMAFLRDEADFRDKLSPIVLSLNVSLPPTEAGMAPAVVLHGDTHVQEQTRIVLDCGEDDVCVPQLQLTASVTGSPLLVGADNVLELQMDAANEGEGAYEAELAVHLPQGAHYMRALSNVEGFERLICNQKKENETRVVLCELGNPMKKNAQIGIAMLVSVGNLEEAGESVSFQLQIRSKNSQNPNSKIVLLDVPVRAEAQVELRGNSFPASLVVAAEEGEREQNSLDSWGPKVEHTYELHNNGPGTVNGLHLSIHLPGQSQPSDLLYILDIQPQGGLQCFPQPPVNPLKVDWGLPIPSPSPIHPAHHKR
Integrin alpha-IIb/beta-3, sequence (P08514 891-1039 limits assumed): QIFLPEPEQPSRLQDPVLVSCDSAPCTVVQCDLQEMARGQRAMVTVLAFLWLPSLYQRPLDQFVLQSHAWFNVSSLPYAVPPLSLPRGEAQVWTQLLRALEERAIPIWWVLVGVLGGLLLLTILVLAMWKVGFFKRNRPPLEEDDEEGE
Series [2] in a line: Oral bioavailability of compound in Sprague Dawley rats. It is filed as ADME, organism-based. The following applies: rat, in vivo.

Bounds are passed on as bounds.

Integrin alpha-V/beta-3, sequence (P05106 27-788 limits assumed): as the sequence (P05106 27-788 limits assumed) above
Integrin alpha-V/beta-3, sequence (P06756 31-889 limits assumed): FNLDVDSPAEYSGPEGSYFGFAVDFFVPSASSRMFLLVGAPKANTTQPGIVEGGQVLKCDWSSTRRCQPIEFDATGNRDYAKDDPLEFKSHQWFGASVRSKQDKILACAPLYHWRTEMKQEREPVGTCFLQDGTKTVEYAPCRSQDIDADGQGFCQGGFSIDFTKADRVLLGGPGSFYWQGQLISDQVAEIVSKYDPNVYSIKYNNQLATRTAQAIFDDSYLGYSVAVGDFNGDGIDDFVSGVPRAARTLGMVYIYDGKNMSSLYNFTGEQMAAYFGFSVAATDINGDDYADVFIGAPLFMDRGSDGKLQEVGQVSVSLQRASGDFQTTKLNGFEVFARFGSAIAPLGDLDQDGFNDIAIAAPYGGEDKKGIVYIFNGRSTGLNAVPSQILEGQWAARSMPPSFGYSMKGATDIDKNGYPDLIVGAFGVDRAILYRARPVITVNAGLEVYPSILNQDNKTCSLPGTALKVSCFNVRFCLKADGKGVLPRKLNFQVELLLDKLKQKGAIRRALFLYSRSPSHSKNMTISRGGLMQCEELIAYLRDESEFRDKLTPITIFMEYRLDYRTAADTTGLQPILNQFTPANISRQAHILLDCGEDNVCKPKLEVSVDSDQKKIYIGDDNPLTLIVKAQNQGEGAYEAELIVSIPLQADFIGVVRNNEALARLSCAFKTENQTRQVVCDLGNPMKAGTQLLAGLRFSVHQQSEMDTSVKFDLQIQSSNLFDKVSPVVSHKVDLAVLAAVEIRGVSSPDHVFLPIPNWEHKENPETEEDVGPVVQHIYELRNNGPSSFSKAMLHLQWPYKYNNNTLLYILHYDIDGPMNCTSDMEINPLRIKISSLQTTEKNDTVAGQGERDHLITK
Integrin alpha-V/beta-3, sequence (P06756 891-1048 limits assumed): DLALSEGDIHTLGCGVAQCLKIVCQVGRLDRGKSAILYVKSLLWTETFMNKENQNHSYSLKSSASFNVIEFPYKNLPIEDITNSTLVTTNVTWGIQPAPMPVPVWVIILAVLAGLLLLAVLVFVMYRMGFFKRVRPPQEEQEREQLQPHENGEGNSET

A word on the IC50: it is the midpoint of a concentration-inhibition curve. For the compound `Cc1noc(C)c1S(=O)(=O)N[C@@H](CNC(=O)N1CCC2(CC1)CCN(c1ccncc1)CC2)C(=O)O`, the IC50 against Integrin alpha-V/beta-3 is greater than 100 µM; in the series listed under Homo sapiens, 0.039 µM.

Take `Cc1ccc(S(=O)(=O)N[C@@H](CCC(=O)N2CCC3(CC2)CCN(c2ccncc2)CC3)C(=O)O)cc1`: the values for the IC50 against Integrin alpha-V/beta-3 and in the series listed under Homo sapiens were greater than 100 µM and 0.078 µM, respectively.

Turning to `O=C(O)CCCC(=O)N1CCC2(CC1)CCN(c1ccncc1)CC2`, the IC50 against Integrin alpha-V/beta-3 is greater than 100 µM; in the series filed under Homo sapiens, 5.08 µM.

As for `O=C(O)COC1CCN(C(=O)N2CCC3(CC2)CCN(c2ccncc2)CC3)CC1`, the figures for the half-maximal inhibitory concentration (IC50) (in series [1]; on Integrin alpha-V/beta-3; in the series filed under Homo sapiens) were 0.21 µM, greater than 100 µM and 2.65 µM, respectively.

For `CCCCS(=O)(=O)N[C@@H](CCC(=O)N1CCC2(CC1)CCN(c1ccncc1)CC2)C(=O)O`, the IC50 is 0.023 µM in series [1], greater than 100 µM against Integrin alpha-V/beta-3 and 0.768 µM in the series filed under Homo sapiens.

The term bioavailability denotes dose-corrected exposure relative to a reference, in per cent. A higher bioavailability goes with good availability. With `Cc1noc(C)c1S(=O)(=O)N[C@@H](CCC(=O)N1CCC2(CC1)CCN(c1ccncc1)CC2)C(=O)O`, the figures for the IC50 against Integrin alpha-V/beta-3 and in the series listed under Homo sapiens were greater than 100 µM and 0.021 µM, respectively. The compound further gave a bioavailability in series [2] of 7.3%.

As for `N=C(N)c1ccc(C(=O)N2CCC3(CCN(C(=O)CCCC(=O)O)CC3)CC2)cc1`, the half-maximal inhibitory concentration (IC50) is greater than 100 µM against Integrin alpha-V/beta-3 and 10.3 µM in the series listed under Homo sapiens.

As for `O=C(O)CCCCC(=O)N1CCC2(CC1)CCN(c1ccncc1)CC2`, the figures for the IC50 against Integrin alpha-V/beta-3 and in the series filed under Homo sapiens were greater than 100 µM and 4.54 µM, respectively.

As for `CCCCOC(=O)N[C@@H](CCC(=O)N1CCC2(CC1)CCN(c1ccncc1)CC2)C(=O)O`, the IC50 in series [1] was 0.004 µM; on Integrin alpha-V/beta-3, greater than 100 µM; in the series listed under Homo sapiens, 0.722 µM.

Turning to `N=C(N)c1ccc(C(=O)N2CCC3(CCN(C(=O)CC(=O)O)CC3)CC2)cc1`, the IC50 in series [1] was 9.7 µM; against Integrin alpha-V/beta-3, greater than 100 µM; in the series filed under Homo sapiens, 9.3 µM.

For `O=C(O)CCCCCC(=O)N1CCC2(CC1)CCN(c1ccncc1)CC2`, the results for the IC50 (in series [1]; against Integrin alpha-V/beta-3; in the series filed under Homo sapiens) were 0.27 µM, greater than 100 µM and 4.55 µM, respectively.

For `N=C(N)c1ccc(C(=O)N2CCC3(CCN(C(=O)CCC(=O)O)CC3)CC2)cc1`, the half-maximal inhibitory concentration (IC50) at Integrin alpha-V/beta-3 was greater than 100 µM; in the series listed under Homo sapiens, 13.8 µM.

As to `O=C(O)CC(=O)N1CCC(C(=O)N2CCC3(CC2)CCN(c2ccncc2)CC3)CC1`, the IC50 in series [1] is 0.043 µM; at Integrin alpha-V/beta-3 it was greater than 100 µM; in the series listed under Homo sapiens, 1.17 µM.

For the compound `N=C(N)c1ccc(N2CCC3(CCN(CCC(=O)O)CC3)CC2)cc1`, the IC50 in series [1] was 0.16 µM; against Integrin alpha-V/beta-3, greater than 100 µM; in the series filed under Homo sapiens it was 1.15 µM.

As to `N=C(N)c1ccc(C(=O)N2CCC3(CCN(C(=O)CCCCC(=O)O)CC3)CC2)cc1`, the IC50 in series [1] was greater than 100 µM; against Integrin alpha-V/beta-3, greater than 100 µM; in the series listed under Homo sapiens, 18.8 µM.

As for `O=C(O)CCCCCCC(=O)N1CCC2(CC1)CCN(c1ccncc1)CC2`, the IC50 on Integrin alpha-V/beta-3 was greater than 100 µM; in the series filed under Homo sapiens, 17.8 µM.

With `O=C(N[C@@H](CCC(=O)N1CCC2(CC1)CCN(c1ccncc1)CC2)C(=O)O)OCc1ccccc1`, the IC50 is greater than 100 µM at Integrin alpha-V/beta-3 and 4.58 µM in the series listed under Homo sapiens.

(Values after ChEMBL document CHEMBL1134714, “Spirocyclic nonpeptide glycoprotein IIb-IIIa antagonists. Part 1: design of potent and specific 3,9-diazaspiro[5.5]undecanes” (Bioorg Med Chem Lett, 2001).)
